Measurements reported in article PMC3608532, “Characterization of a Single-Chain Variable Fragment Recognizing a Linear Epitope of Aβ: A Biotechnical Tool for Studies on Alzheimer’s Disease?” (PLoS ONE, 2013).

Columns and labels:
Aβ(1-42) fibrils = assay: ELISA binding to Aβ(1-42) fibrils; parameters: species or system human; details: 250 ng/well, 10% N-biotinylated fibrils on streptavidin plate; scFv-IC16 12 and 23 nM; Penta-His and HRP anti-mouse detection, absorbance 450 nm
Protocol: (§1) 1 mg of Aβ(1-42) or N-terminally/C-terminally biotinylated Aβ(1-42) was dissolved in 1 ml 1,1,1,3,3,3-hexafluorosiopropanol (HFIP) and incubated overnight at room temperature. Afterwards, Aβ(1-42) was mixed in the favored ratio with N-terminally/C-terminally biotinylated Aβ(1-42) and aliquoted. HFIP was evaporated using a SpeedVac (Concentrator 5301, Eppendorf, Germany) at room temperature for 30 min. To evaporate remaining HFIP, the sample was incubated overnight at room temperature with an open lid.
(§2) The preparation of Aβ(1-42) monomers and oligomers was carried out by size exclusion chromatography (SEC) as already described by Johansson et al with minor modifications. 250 µg of Aβ peptide was dissolved in 130 µl SEC buffer (50 mM NaPi, pH 7.4; 150 mM NaCl; 0.6% Tween-20) and briefly centrifuged (1 min, 16 100×g, room temperature) to remove insoluble fibrillar material. 100 µl of the supernatant was applied on a Superdex75 10/300 column (GE Healthcare, UK) connected to an Äkta purifier system (GE Healthcare, UK). The sample was eluted at a flow rate of 0.6 ml per min at room temperature and detected at wavelengths of 214, 250 and 278 nm. […] The concentration of the Aβ preparations was determined using the Micro BCA Protein Assay Kit (Thermo Scientific, Waltham, MA, USA). […] The samples were measured at a wavelength of 570 nm with a Polarstar Optima plate reader (BMG, Ortenberg, Germany). […]

Aβ(1-42) oligomers = assay: ELISA binding to Aβ(1-42) oligomers; parameters: species or system human; details: 250 ng/well, 10% N-biotinylated oligomers on streptavidin plate; compared with fibrils, p = 0.0014
Protocol: as §1, §2

Aβ(1-42) monomers = assay: ELISA binding to Aβ(1-42) monomers; parameters: species or system human; details: 250 ng/well
Protocol: as §1, §2

[1] = test system: Aβ naturally secreted by 7PA2 cells; assay: Immunoprecipitation of cell culture derived Aβ; type: binding; details: scFv-IC16-NHS-Sepharose, Western blot with 4G8
Protocol: Purified scFv-IC16 was dialyzed against PBS and coupled to NHS-Sepharose (GE, Buckinghamshire, UK) according to the manufacturers recommendations. Conditioned medium (CM) was prepared from confluent wild type CHO cells or 7PA2 cells cultured in DMEM (Life Technologies, UK) in presence or absence of FCS. Aβ was immune-precipitated from cleared CM with scFv-IC16-NHS-Sepharose overnight at 4°C. After washing with PBS, captured proteins were separated by 10–20% tricine peptide PAGE (Biorad, Hercules, CA) and transferred onto a 0.2 µm nitrocellulose membrane at 400 mA for 2 h. The filter was boiled for 5 min in PBS [42] and blocked overnight at 4°C with 5% fat-free milk in PBS containing 0.05% Tween 20 (PBS-T). After washing in PBS-T, the membrane was probed with 1∶200 diluted monoclonal 4G8 (Signet, Dedhem, MA). Bound antibody was detected with horseradish peroxidase conjugated goat anti-mouse Ig (at 1∶25000) (Thermo Scientific, Bonn, Germany). Subsequently, the Amersham ECL Western Blotting Detection Reagent (GE, Buckinghamshire, UK) was applied for visualization.

For “scFv-IC16: single-chain variable fragment (VH-(Gly4Ser)3-VL, His6- and Myc-tag) derived from Aβ binding monoclonal antibody IC16, expressed in E. coli”, which “ELISA binding to Aβ fibrils” value (Aβ(1-42) fibrils) is on record?
The value was “preferential binding”.

What about the “ELISA binding to Aβ oligomers” value (Aβ(1-42) oligomers) of the same substance?
The value was “weaker”.

And the “ELISA binding to Aβ monomers, C-terminal biotin tag” value (Aβ(1-42) monomers; 100% C-terminally biotinylated monomers, p = 0.038 versus N-bio oligomers)?
The value was “very similar to Aβ oligomers”.

What about the “ELISA binding to Aβ monomers, N-terminal biotin tag” value (Aβ(1-42) monomers; 100% N-terminally biotinylated monomers on streptavidin plate) of the same substance?
Its value is “not detected”.

What about the “immunoprecipitation of monomeric Aβ” value ([1]; 7PA2 conditioned medium containing FCS, overnight 4°C) of the same substance?
Its value is “efficiently precipitated”.

And the “immunoprecipitation of lower oligomeric Aβ species” value ([1]; conditioned medium of 7PA2 cells cultured without FCS)?
Its value is “efficiently precipitated”.
